From patent publication US20250017874A1, “PHARMACEUTICAL COMPOSITIONS FOR USE IN REDUCING HYPERPIGMENTATION” (Caliway Biopharmaceuticals Co., Ltd., priority 2023, published 2025) come the findings set out here.

Each structure is given as a SMILES string. Where two headings read alike, the source gives them in different places.

Type in all cases: cell-based, mouse
The test system of data set [1] is B16-F10 cells. Put plainly: In vitro efficacy comparison: melanin content, α-MSH 0.5 h then test article 30 h (Example 5). The settings on record: α-MSH 0.5 h then TA 30 h. The method, then:
B16-F10 cells were seeded in a 96-well plate. Except the vehicle group, cells of the other groups were cultured in the presence of α-MSH for 0.5 hours first. The compositions for examination were then added to the culture medium and the cells were further cultured for 30 hours. The rest of the experimental conditions and procedures were similar to those described in Example 3. Afterwards, the cells were collected to evaluate the effect of 4-[(E)-2-(3,5-dihydroxyphenyl)ethenyl]benzene-1,3-diol compositions (IM01 Group) and Arbutin and 5-[(E)-2-(4-hydroxyphenyl)ethenyl]benzene-1,3-diol (IM00 Group) compositions on reducing melanin levels. The experimental design is summarized in Table 18 and results shown in both Table 18 and FIG. 5.

The subject of data set [2] is B16-F10 cells. Kind of data set: In vitro melanin content versus arbutin and hydroquinone (Example 6). As for the experimental part: Except the vehicle group, cells of the other groups were cultured with α-MSH for 24 hours first. The compositions for investigation (see Tables 19 and 20) were then added to the culture medium and the cells were further cultured for 24 hours. The rest of the experimental operation process was similar to that described in Example 3. […] [table] [table]

Data set [3] has as its system B16-F10 cell line. The settings on record: for Relative cell viability (%): mouse. From the text: (§1) Table 23 below lists the study design for evaluating EC50 values of IM01, which contains 4-[(E)-2-(3,5-dihydroxyphenyl)ethenyl]benzene-1,3-diol.
(§2) Table 25 below lists the study design for evaluating EC50 values of IM01, which contains 4-[(E)-2-(3,5-dihydroxyphenyl)ethenyl]benzene-1,3-diol.

Data set [4] deals with B16-F10 cell line. Put plainly: In vitro whitening efficacy: melanin content (Example 7). The settings on record: Table 26.
Excerpt: as §1, §2

For `Oc1ccc(/C=C/c2cc(O)cc(O)c2)cc1` [IM00, 5-[(E)-2-(4-hydroxyphenyl)ethenyl]benzene-1,3-diol], in data set [1] (TA 87.62 μM (IM00-20)), the “Melanin content (%) Mean” value turned out to be 98.9%.
Take `OC[C@H]1O[C@@H](Oc2ccc(O)cc2)[C@H](O)[C@@H](O)[C@@H]1O` [Arbutin, reference compound]: the “Melanin content (%) Mean ± SD” value in data set [2] (TA 450 μM, Table 21 experiment) was 76.1 ± 6.3%; in data set [2] (TA 900 μM, Table 21 experiment) it was 60.9 ± 4.5%; in data set [2] (TA 900 μM, Table 22 experiment), 62.8 ± 1.8%; in data set [2] (TA 1800 μM, Table 22 experiment), 47.1 ± 0.3%. For the same compound, the “Melanin content (%) Mean” value in data set [1] (TA 918.27 μM) was 95.8%. Moreover, the figures for the “Relative cell viability (%)” value in data set [3] (450 μM) and in data set [3] (900 μM) were 100.8 ± 1.2% and 93.7 ± 1.6%, respectively. Also, the “Melanin content (%)” value in data set [4] (TA 450 μM (Arbutin/L)) worked out at 78.5 ± 1.1%; in data set [4] (TA 900 μM (Arbutin/H)), 67.0 ± 2.8%.
Regarding `Oc1ccc(O)cc1` [Hydroquinone, hydroquinone, reference compound], in data set [2] (TA 120 μM, Table 21 experiment), the “Melanin content (%) Mean ± SD” value was found to be 61.5 ± 4.6%. Besides, the Cytotoxicity entry in data set [3] is “high cytotoxicity”. Besides, the “Relative cell viability (%)” value in data set [3] (60 μM) amounted to 88.2 ± 6.0%. Also, the “Melanin content (%)” value in data set [4] (TA 60 μM (/L of IM01 and HQ), HQ vehicle DDW) was 34.6 ± 2.8%; in data set [4] (TA 120 μM (/H of IM01 and HQ), HQ vehicle DDW), 40.5 ± 3.7%.
